Measured values reported in a compilation of properties of binary mixtures (doi:10.1016/j.fluid.2022.113559).

Experiment: xn = mol fraction of the nth substance listed
Conditions: 101 kPa, x1 = 0.3333

SMILES: CC[n+]1ccn(C)c1.N#C[S-] + CS(C)=O
- viscosity (283.15 K): 3.95 mPa·s
- viscosity (288.15 K): 3.58 mPa·s
- viscosity (298.15 K): 2.92 mPa·s
- viscosity (303.15 K): 2.63 mPa·s
- viscosity (313.15 K): 2.12 mPa·s
- viscosity (318.15 K): 1.91 mPa·s
- viscosity (323.15 K): 1.73 mPa·s
- viscosity (333.15 K): 1.44 mPa·s
- viscosity (338.15 K): 1.34 mPa·s
- viscosity (343.15 K): 1.26 mPa·s
- viscosity (348.15 K): 1.21 mPa·s
- viscosity (353.15 K): 1.19 mPa·s

SMILES: CCOS(=O)(=O)[O-].CC[n+]1ccn(C)c1 + CS(C)=O
- viscosity (283.15 K): 4.35 mPa·s
- viscosity (298.15 K): 3.16 mPa·s
- viscosity (303.15 K): 2.83 mPa·s
- viscosity (308.15 K): 2.53 mPa·s
- viscosity (318.15 K): 2.02 mPa·s
- viscosity (323.15 K): 1.82 mPa·s
- viscosity (328.15 K): 1.64 mPa·s
- viscosity (333.15 K): 1.5 mPa·s
- viscosity (338.15 K): 1.39 mPa·s
- viscosity (343.15 K): 1.32 mPa·s
- viscosity (353.15 K): 1.24 mPa·s
